Patent publication US20240400561A1, “NOVEL SUBSTITUTED SULFONYLUREA COMPOUNDS AS INHIBITORS OF INTERLEUKIN-1 ACTIVITY” (Viva Star Biosciences (Suzhou) Co., Ltd., priority 2021, published 2024)

Molecular target: T1, NLRP3 (Homo sapiens, UniProt Q96P20)
T1 construct: Seed THP-1 cells (5.56*10^5 cells/mL) containing 1.0 ug/mL LPS; endogenous in cells; host or cells: THP-1 cells
Test: THP-1 cell assay (LPS priming, nigericin), IL1β release by HTRF; called pyroptosis assay, THP IC50
Type: cell-based
Conditions: NLRP3 inhibitory activity; THP-1 cells, 1.0 ug/mL LPS, compound 3 hrs, nigericin 5 uM 1 hr, IL1β in supernatant
Summary of the method: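 THP-1 cells were primed with 1.0 ug/mL LPS in serum-free RPMI 1640 alongside compound (10 doses from 5 uM, 1:3) for 3 h at 37° C. Nigericin (final 5 uM) was then added for 1 h. Supernatant IL1β was quantified by HTRF against a standard curve, with IC50 from a four-parameter fit.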

T1 sequence (Q96P20 whole entry): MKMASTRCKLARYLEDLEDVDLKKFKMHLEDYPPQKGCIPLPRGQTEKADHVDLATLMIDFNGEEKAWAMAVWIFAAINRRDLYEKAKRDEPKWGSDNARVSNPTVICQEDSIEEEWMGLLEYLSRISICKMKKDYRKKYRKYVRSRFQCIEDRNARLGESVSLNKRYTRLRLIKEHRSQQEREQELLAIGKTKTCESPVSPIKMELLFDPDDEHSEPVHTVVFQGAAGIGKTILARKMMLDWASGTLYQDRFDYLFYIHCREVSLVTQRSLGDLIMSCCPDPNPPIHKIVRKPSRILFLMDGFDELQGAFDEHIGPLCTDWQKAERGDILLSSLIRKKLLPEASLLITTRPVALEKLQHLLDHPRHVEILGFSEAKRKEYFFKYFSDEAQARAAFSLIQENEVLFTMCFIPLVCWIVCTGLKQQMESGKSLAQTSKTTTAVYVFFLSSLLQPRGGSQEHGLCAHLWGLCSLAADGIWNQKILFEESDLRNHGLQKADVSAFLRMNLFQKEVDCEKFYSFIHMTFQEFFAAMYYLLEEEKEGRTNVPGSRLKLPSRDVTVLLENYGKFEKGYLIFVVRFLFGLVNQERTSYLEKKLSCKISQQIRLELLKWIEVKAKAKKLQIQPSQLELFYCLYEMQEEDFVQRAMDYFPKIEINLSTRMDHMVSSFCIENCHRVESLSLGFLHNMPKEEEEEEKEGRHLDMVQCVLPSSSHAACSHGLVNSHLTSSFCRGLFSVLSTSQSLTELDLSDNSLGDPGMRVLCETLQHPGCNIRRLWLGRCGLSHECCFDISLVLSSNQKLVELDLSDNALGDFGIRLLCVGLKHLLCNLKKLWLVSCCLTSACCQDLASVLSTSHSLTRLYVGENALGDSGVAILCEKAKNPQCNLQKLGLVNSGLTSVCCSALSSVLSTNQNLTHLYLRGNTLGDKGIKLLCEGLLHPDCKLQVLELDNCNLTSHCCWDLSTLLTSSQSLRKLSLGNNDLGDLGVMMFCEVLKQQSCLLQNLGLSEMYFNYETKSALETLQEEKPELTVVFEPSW

SMILES	IC50
CN1CCC(n2ccc3c(-c4ccc5c(c4NC(=O)NS(=O)(=O)c4cc(C(C)(C)O)cs4)CCC5)ccnc32)C1 (stereo not drawn) [Example 57, 4-(2-hydroxypropan-2-yl)-N-((5-(1-(1-methylpyrrolidin-3-yl)-1H-pyrrolo[2,3-b]pyridin-4-yl)-2,3-dihydro-1H-inden-4-yl)carbamoyl)thiophene-2-sulfonamide]	300 to 1000 nM
CN1CCC(n2ccc3c(-c4ccc5c(c4NC(=O)NS(=O)(=O)c4cc(C(C)(C)O)cs4)CCC5)ccnc32)CC1 [Example 55, 4-(2-hydroxypropan-2-yl)-N-((5-(1-(1-methylpiperidin-4-yl)-1H-pyrrolo[2,3-b]pyridin-4-yl)-2,3-dihydro-1H-inden-4-yl)carbamoyl)thiophene-2-sulfonamide]	300 to 1000 nM
Cc1cc2c(c(NC(=O)NS(=O)(=O)c3ccn(C4CC4)n3)c1-c1ccn3nccc3c1)OCC2 [Example 83, 1-cyclopropyl-N-((5-methyl-6-(pyrazolo[1,5-a]pyridin-5-yl)-2,3-dihydrobenzofuran-7-yl)carbamoyl)-1H-pyrazole-3-sulfonamide]	30 to 300 nM
Cn1cnc2ccc(-c3ccc4c(c3NC(=O)NS(=O)(=O)c3cc(C(C)(C)O)cs3)CCC4)cc21 [Example 43, 4-(2-hydroxypropan-2-yl)-N-((5-(1-methyl-1H-benzo[d]imidazol-6-yl)-2,3-dihydro-1H-inden-4-yl)carbamoyl)thiophene-2-sulfonamide]	300 to 1000 nM
CC(C)(O)c1csc(S(=O)(=O)NC(=O)Nc2c(-c3ccc4nccn4c3)ccc3c2OCO3)c1 [Example 65, 4-(2-hydroxypropan-2-yl)-N-((5-(imidazo[1,2-a]pyridin-6-yl)benzo[d][1,3]dioxol-4-yl)carbamoyl)thiophene-2-sulfonamide]	30 to 300 nM
Cc1cc2c(c(NC(=O)NS(=O)(=O)c3ccc(=O)n(CC4CC4)c3)c1-c1ccn3nccc3c1)CCC2 [Example 39, 1-(cyclopropylmethyl)-N-((6-methyl-5-(pyrazolo[1,5-a]pyridin-5-yl)-2,3-dihydro-1H-inden-4-yl)carbamoyl)-6-oxo-1,6-dihydropyridine-3-sulfonamide]	30 to 300 nM
Cn1ccc2c(-c3ccc4c(c3NC(=O)NS(=O)(=O)c3cc(C(C)(C)O)cs3)CCC4)cncc21 [Example 47, 4-(2-hydroxypropan-2-yl)-N-((5-(1-methyl-1H-pyrrolo[2,3-c]pyridin-4-yl)-2,3-dihydro-1H-inden-4-yl)carbamoyl)thiophene-2-sulfonamide]	300 to 1000 nM
Cc1cc2c(c(NC(=O)NS(=O)(=O)c3ccn(CC4CC4)n3)c1-c1ccn3nccc3c1)OCC2 [Example 86, 1-(cyclopropylmethyl)-N-((5-methyl-6-(pyrazolo[1,5-a]pyridin-5-yl)-2,3-dihydrobenzofuran-7-yl)carbamoyl)-1H-pyrazole-3-sulfonamide]	30 to 300 nM
CC(C)n1ccc(S(=O)(=O)NC(=O)Nc2c(-c3ccnc4c3ccn4C)ccc3c2CCC3)n1 [Example 50, 1-isopropyl-N-((5-(1-methyl-1H-pyrrolo[2,3-b]pyridin-4-yl)-2,3-dihydro-1H-inden-4-yl)carbamoyl)-1H-pyrazole-3-sulfonamide]	300 to 1000 nM
Cn1ccc2c(-c3ccc4c(c3NC(=O)NS(=O)(=O)c3cnn(CC5CC5)c3)CCC4)ccnc21 [Example 4, 1-(cyclopropylmethyl)-N-((5-(1-methyl-1H-pyrrolo[2,3-b]pyridin-4-yl)-2,3-dihydro-1H-inden-4-yl)carbamoyl)-1H-pyrazole-4-sulfonamide]	30 to 300 nM

Further lines, results first:

IC50	SMILES
30 to 300 nM	Cc1cc2c(c(NC(=O)NS(=O)(=O)c3cnn(CC4CC4)c3)c1-c1ccc3cncn3c1)CCC2 [Example 20, 1-(cyclopropylmethyl)-N-((5-(imidazo[1,5-a]pyridin-6-yl)-6-methyl-2,3-dihydro-1H-inden-4-yl)carbamoyl)-1H-pyrazole-4-sulfonamide]
≤ 30 nM	Cn1ccc2c(-c3ccc4c(c3NC(=O)NS(=O)(=O)c3cc(C(C)(C)O)cs3)CCC4)ccnc21 [Example 41, 4-(2-hydroxypropan-2-yl)-N-((5-(1-methyl-1H-pyrrolo[2,3-b]pyridin-4-yl)-2,3-dihydro-1H-inden-4-yl)carbamoyl)thiophene-2-sulfonamide]
≤ 30 nM	CC(C)(O)c1csc(S(=O)(=O)NC(=O)Nc2c3c(cc(Cl)c2-c2ccn4cncc4c2)CCC3)c1 [Example 71, N-((6-chloro-5-(imidazo[1,5-a]pyridin-7-yl)-2,3-dihydro-1H-inden-4-yl)carbamoyl)-4-(2-hydroxypropan-2-yl)thiophene-2-sulfonamide]
≤ 30 nM	Cc1cc2c(c(NC(=O)NS(=O)(=O)c3ccnc(N4CCOCC4)c3)c1-c1ccn3nccc3c1)CCC2 [Example 32, N-((6-methyl-5-(pyrazolo[1,5-a]pyridin-5-yl)-2,3-dihydro-1H-inden-4-yl)carbamoyl)-2-morpholinopyridine-4-sulfonamide]
≤ 30 nM	Cc1cc2c(c(NC(=O)NS(=O)(=O)c3ccn(C[C@@H]4CCO4)n3)c1-c1ccn3nccc3c1)CCC2 [Example 91, (S)—N-((6-methyl-5-(pyrazolo[1,5-a]pyridin-5-yl)-2,3-dihydro-1H-inden-4-yl)carbamoyl)-1-(oxetan-2-ylmethyl)-1H-pyrazole-3-sulfonamide]
≤ 30 nM	O=C(Nc1c(-c2ccn3nccc3c2)ccc2c1CCC2)NS(=O)(=O)c1cnn(CC2CC2)c1 [Example 7, 1-(cyclopropylmethyl)-N-((5-(pyrazolo[1,5-a]pyridin-5-yl)-2,3-dihydro-1H-inden-4-yl)carbamoyl)-1H-pyrazole-4-sulfonamide]
≤ 30 nM	O=C(Nc1c(-c2ccn3nccc3c2)ccc2c1CCC2)NS(=O)(=O)c1cncc(NC2CC2)c1 [Example 31, 5-(cyclopropylamino)-N-((5-(pyrazolo[1,5-a]pyridin-5-yl)-2,3-dihydro-1H-inden-4-yl)carbamoyl)pyridine-3-sulfonamide]
≤ 30 nM	CC(C)(O)c1csc(S(=O)(=O)NC(=O)Nc2c3c(cc(C#N)c2-c2ccn4cncc4c2)CCC3)c1 [Example 2, N-((6-cyano-5-(imidazo[1,5-a]pyridin-7-yl)-2,3-dihydro-1H-inden-4-yl)carbamoyl)-4-(2-hydroxypropan-2-yl)thiophene-2-sulfonamide]
≤ 30 nM	Cc1cc2c(c(NC(=O)NS(=O)(=O)c3ccn(C[C@@H](C)O)n3)c1-c1ccn3nccc3c1)CCC2 [Example 79, (R)-1-(2-hydroxypropyl)-N-((6-methyl-5-(pyrazolo[1,5-a]pyridin-5-yl)-2,3-dihydro-1H-inden-4-yl)carbamoyl)-1H-pyrazole-3-sulfonamide]
≤ 30 nM	Cc1cc2c(c(NC(=O)NS(=O)(=O)c3cnn(C4CCC4)c3)c1-c1ccn3nccc3c1)CCC2 [Example 12, 1-cyclobutyl-N-((6-methyl-5-(pyrazolo[1,5-a]pyridin-5-yl)-2,3-dihydro-1H-inden-4-yl)carbamoyl)-1H-pyrazole-4-sulfonamide]
≤ 30 nM	Cc1cc2c(c(NC(=O)NS(=O)(=O)c3ccn(C[C@H](C)O)n3)c1-c1ccn3nccc3c1)CCC2 [Example 80, (S)-1-(2-hydroxypropyl)-N-((6-methyl-5-(pyrazolo[1,5-a]pyridin-5-yl)-2,3-dihydro-1H-inden-4-yl)carbamoyl)-1H-pyrazole-3-sulfonamide]
≤ 30 nM	Cc1cc2c(c(NC(=O)NS(=O)(=O)c3cncc(OC4CC4)c3)c1-c1ccn3nccc3c1)CCC2 [Example 34, 5-cyclopropoxy-N-((6-methyl-5-(pyrazolo[1,5-a]pyridin-5-yl)-2,3-dihydro-1H-inden-4-yl)carbamoyl)pyridine-3-sulfonamide]
≤ 30 nM	Cc1cc2c(c(NC(=O)NS(=O)(=O)c3ccn(C4CC4)n3)c1-c1ccn3nncc3c1)CCC2 [Example 78, N-((5-([1,2,3]triazolo[1,5-a]pyridin-5-yl)-6-methyl-2,3-dihydro-1H-inden-4-yl)carbamoyl)-1-cyclopropyl-1H-pyrazole-3-sulfonamide]
≤ 30 nM	CC(C)(O)c1csc(S(=O)(=O)NC(=O)Nc2c(-c3ccn4ccnc4c3)ccc3c2OCO3)c1 [Example 66, 4-(2-hydroxypropan-2-yl)-N-((5-(imidazo[1,2-a]pyridin-7-yl)benzo[d][1,3]dioxol-4-yl)carbamoyl)thiophene-2-sulfonamide]
